Assay [1] deals with DGKα (Homo sapiens (Human), UniProt P23743). Kind of assay: Biochemical DGK IC50 assay (ADP-Glo, lipid micelle substrate), DGKα. Also: full length DGKα 7.5 nM. The following applies: full length DGKα […], ATP 140 μM, DAG 80 μM. The gist of the method: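 Full-length human DGKα assayed by ADP-Glo with DAG/PS lipid micelle substrate at room temperature in 50 mM HEPES, 10 mM MgCl2, 0.01% BSA, 0.1 mM Na3VO4, 0.005% Tween-20, 0.01 mM CaCl2.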
For orientation: ADP-Glo first removes unused ATP, then detects ADP through luciferase.

The target of assay [2] is DGKζ (Homo sapiens (Human), UniProt Q13574). The experiment in a line: Biochemical DGK IC50 assay (ADP-Glo, lipid micelle substrate), DGKζ. The following applies: full length DGKζ 0.5 nM, ATP 140 μM, DAG 80 μM. In short, it runs like this:
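Full-length human His-TEV-tagged DGKζ, expressed in Sf9 cells and purified, was run at room temperature on DAG/PS lipid micelles in 50 mM HEPES, 10 mM MgCl2, 0.01 mM CaCl2 buffer. After 1 h reaction, ADP formed was detected by ADP-Glo luminescence. IC50s came from inhibition across increasing compound concentrations.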

Our source for the IC50 values is patent US20250346597A1, “CONDENSED HETEROCYCLIC COMPOUNDS AS INHIBITOR OF DIACYLGLYCEROL KINASES” (BEONE MEDICINES I GMBH, priority 2023, published 2025).

By IC50 is commonly meant the concentration that gives 50% inhibition. Low readings indicate greater potency in that assay, high ones weaker potency in that assay.

SMILES strings stand for the structures.

Sequence of DGKζ (Q13574 other isoform, or with tags, fused parts or gaps): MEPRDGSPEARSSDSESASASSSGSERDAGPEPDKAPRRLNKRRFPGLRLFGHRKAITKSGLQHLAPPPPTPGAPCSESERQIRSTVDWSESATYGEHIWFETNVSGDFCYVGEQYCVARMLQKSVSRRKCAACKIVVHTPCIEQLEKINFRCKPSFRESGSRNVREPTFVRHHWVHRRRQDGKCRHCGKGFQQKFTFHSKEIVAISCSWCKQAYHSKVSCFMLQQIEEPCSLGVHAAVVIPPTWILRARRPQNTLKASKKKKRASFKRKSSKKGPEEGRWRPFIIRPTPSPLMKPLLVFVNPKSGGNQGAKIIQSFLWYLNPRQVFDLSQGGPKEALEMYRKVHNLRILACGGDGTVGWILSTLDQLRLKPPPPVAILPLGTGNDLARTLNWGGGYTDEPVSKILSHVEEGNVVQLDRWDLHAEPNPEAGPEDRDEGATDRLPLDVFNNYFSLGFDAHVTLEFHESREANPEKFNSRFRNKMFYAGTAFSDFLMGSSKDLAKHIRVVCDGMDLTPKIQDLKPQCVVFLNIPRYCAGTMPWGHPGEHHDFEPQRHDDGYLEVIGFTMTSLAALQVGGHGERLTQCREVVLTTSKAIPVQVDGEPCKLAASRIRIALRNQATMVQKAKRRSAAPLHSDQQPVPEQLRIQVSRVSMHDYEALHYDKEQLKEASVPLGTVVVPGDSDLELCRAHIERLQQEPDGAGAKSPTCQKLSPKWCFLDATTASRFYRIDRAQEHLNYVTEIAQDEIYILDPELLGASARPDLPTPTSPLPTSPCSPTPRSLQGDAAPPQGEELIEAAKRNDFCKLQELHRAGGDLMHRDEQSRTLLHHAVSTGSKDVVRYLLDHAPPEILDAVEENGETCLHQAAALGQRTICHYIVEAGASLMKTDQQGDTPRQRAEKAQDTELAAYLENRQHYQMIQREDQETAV
Sequence of DGKα (P23743 whole entry): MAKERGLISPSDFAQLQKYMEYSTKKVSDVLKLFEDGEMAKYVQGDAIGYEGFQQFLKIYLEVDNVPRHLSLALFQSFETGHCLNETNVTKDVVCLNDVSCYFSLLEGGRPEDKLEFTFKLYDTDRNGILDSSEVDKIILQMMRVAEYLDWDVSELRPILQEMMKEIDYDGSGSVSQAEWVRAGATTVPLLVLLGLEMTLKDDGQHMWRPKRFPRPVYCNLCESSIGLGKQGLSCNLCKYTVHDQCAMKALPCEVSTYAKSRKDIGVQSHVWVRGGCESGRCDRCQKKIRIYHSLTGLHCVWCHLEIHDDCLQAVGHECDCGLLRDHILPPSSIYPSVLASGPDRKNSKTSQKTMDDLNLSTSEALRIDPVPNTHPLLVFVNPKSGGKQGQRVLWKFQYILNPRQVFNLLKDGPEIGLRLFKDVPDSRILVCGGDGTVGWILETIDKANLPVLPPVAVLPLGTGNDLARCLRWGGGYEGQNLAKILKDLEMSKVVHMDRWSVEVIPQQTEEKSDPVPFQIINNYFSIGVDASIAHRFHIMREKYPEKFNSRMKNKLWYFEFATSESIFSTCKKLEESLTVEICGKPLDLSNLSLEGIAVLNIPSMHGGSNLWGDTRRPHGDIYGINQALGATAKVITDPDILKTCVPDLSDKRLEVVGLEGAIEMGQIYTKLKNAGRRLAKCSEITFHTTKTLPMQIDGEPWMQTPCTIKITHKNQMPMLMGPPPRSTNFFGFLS

For the compound `CC[C@H]1CN(C(C)c2ccc(C3CC3)nc2)[C@H](CC)CN1c1nc(=O)n(C)c2cn(CC#N)nc12` (single isomer, unassigned) [Compound A127a], the values for the IC50 in assay [1] and in assay [2] were 357 nM and 71 nM, respectively.
In the same order, the values of `CC[C@H]1CN(C(C)c2ccc(C3CC3)nc2)[C@H](CC)CN1c1nc(=O)n(C)c2cn(CC#N)nc12` (single isomer, unassigned) [Compound A127b] are 3360 nM and 3280 nM.
As for `CC[C@H]1CN(C(C)c2cc3sc(C)nc3cc2F)[C@H](CC)CN1c1nc(=O)n(C)c2cn(CC#N)nc12` (single isomer, unassigned) [Compound A128a], the half-inhibitory concentration (IC50) in assay [1] amounted to 375 nM; in assay [2] it was 60 nM.
On the same counts, the results for `CC[C@H]1CN(C(C)c2cc3sc(C)nc3cc2F)[C@H](CC)CN1c1nc(=O)n(C)c2cn(CC#N)nc12` (single isomer, unassigned) [Compound A128b] are 4480 nM and 694 nM.
On the same counts, the results for `CC[C@H]1CN(C(C)c2ccc3nc(C)sc3n2)[C@H](CC)CN1c1nc(=O)n(C)c2cn(CC#N)nc12` (single isomer, unassigned) [Compound A129a] are 2100 nM and 626 nM.
On the same counts, the results for `CC[C@H]1CN(C(C)c2ccc3nc(C)sc3n2)[C@H](CC)CN1c1nc(=O)n(C)c2cn(CC#N)nc12` (single isomer, unassigned) [Compound A129b] are 192 nM and 45 nM.
For `CC[C@H]1CN(C(C)c2ccc3nc(C)sc3n2)[C@H](CC)CN1c1cc(=O)n(C)c2cn(CC#N)nc12` (single isomer, unassigned) [Compound A133a], the results for the IC50 in assay [1] and in assay [2] were 3280 nM and 1520 nM, respectively.
In the same order, the values of `CC[C@H]1CN(C(C)c2ccc3nc(C)sc3n2)[C@H](CC)CN1c1cc(=O)n(C)c2cn(CC#N)nc12` (single isomer, unassigned) [Compound A133b] are 61 nM and 24 nM.
Take `[2H]C([2H])([2H])n1c(=O)cc(N2C[C@@H](CC)N(C(C)c3ccc4nc(C)sc4n3)C[C@@H]2CC)c2nn(CC#N)cc21` (single isomer, unassigned) [Compound A134a]: the concentration for half-maximal inhibition (IC50) in assay [1] is 3390 nM; in assay [2] it was 3920 nM.
For `[2H]C([2H])([2H])n1c(=O)cc(N2C[C@@H](CC)N(C(C)c3ccc4nc(C)sc4n3)C[C@@H]2CC)c2nn(CC#N)cc21` (single isomer, unassigned) [Compound A134b], the IC50 in assay [1] worked out at 108 nM; in assay [2], 22 nM.
Regarding `CCC(c1ccc(C(F)(F)F)cc1)N1C[C@H](CC)N(c2cc(=O)n(C)c3cn(CC#N)nc23)C[C@H]1CC` (single isomer, unassigned) [Compound A135a], the IC50 came to 86 nM in assay [1] and 96 nM in assay [2].
`CCC(c1ccc(C(F)(F)F)cc1)N1C[C@H](CC)N(c2cc(=O)n(C)c3cn(CC#N)nc23)C[C@H]1CC` (single isomer, unassigned) [Compound A135b]: the IC50 in assay [1] turned out to be 483 nM; in assay [2], 3750 nM.
As to `CC#CCn1cc2c(n1)c(N1C[C@@H](CC)N(C(C)c3ccc4nc(C)sc4c3F)C[C@@H]1CC)cc(=O)n2C` (single isomer, unassigned) [Compound A138a], the results for the IC50 in assay [1] and in assay [2] were 311 nM and 143 nM, respectively.
In the same order, the values of `CC#CCn1cc2c(n1)c(N1C[C@@H](CC)N(C(C)c3ccc4nc(C)sc4c3F)C[C@@H]1CC)cc(=O)n2C` (single isomer, unassigned) [Compound A138b] are 2040 nM and 3280 nM.
In the same order, the values of `CC[C@H]1CN(C(C)c2ccc3nc(C)sc3n2)[C@H](CC)CN1c1c(C#N)c(=O)n(C)c2cn(CC#N)nc12` (single isomer, unassigned) [Compound A140a] are 840 nM and 3380 nM.
On the same counts, the results for `CC[C@H]1CN(C(C)c2ccc3nc(C)sc3n2)[C@H](CC)CN1c1c(C#N)c(=O)n(C)c2cn(CC#N)nc12` (single isomer, unassigned) [Compound A140b] are 93 nM and 45 nM.
